Measured values reported in patent publication US7355047B2, “Substituted quinolone carboxylic acids, their derivatives, site of action, and uses thereof” (The Regents of the University of California, priority 2002, dated 2008).

Tests used:
[1] = system: GABAA receptor complex (GRC); experiment: [35S]TBPS binding, rat cerebellum; details: 2 nM [35S]TBPS, 30 μM furosemide, FIG. 14
BZ receptors = experiment: [3H]Flunitrazepam binding, rat cortex; details: 0.2 nM [3H]flunitrazepam, FIG. 6
Protocol: [^3H]Flunitrazepam binding: assays were carried out under identical conditions, using an identical tissue preparation, as those used in the [^35S]TBPS binding assays with the exception that 1 μM GABA was added to all samples instead of 5 μM GABA. [^3H]Flunitrazepam, 0.2 nM (75 Ci/mmol, New England Nuclear, Boston, Mass.) was used to label BZ sites. Non-specific binding is defined as binding in the presence of 1 μM clonazepam. The data were evaluated by nonlinear regression to obtain IC50 and EC50 values.

[2] = system: GABA-gated chloride channels; experiment: Electrophysiological Assay 1, whole cell patch-clamp of hippocampal neurons; assay type: cell-based; details: C3 5 μM; GABA 10 μM; embryonic rat hippocampal neurons; FIG. 1
Protocol: Pregnant Sprague-Dawley rats, incubating embryos of 17-19 days gestation, were killed by cervical dislocation. The embryos were removed under aseptic conditions and the brains quickly excised and placed in Hank's balanced salt solution (HBSS, Gibco) at ambient room temperature (18-22° C.). The hippocampi were dissected out and chopped into fragments (˜2 mm^3) and transferred into an enzyme solution containing (in mM): NaCl 116, KCl 5.4, NaHCO3 26, NaH2PO4 1, CaCl2 1.5, MgSO4 1, EDTA 0.5, glucose 25, cysteine 1, and papain 20 U/ml (Sigma) and incubated at 37° C., 5% CO2, 100% relative humidity for 1 hr. Tissue fragments were washed in HBSS containing 1 mg/ml of bovine serum albumin (BSA) and 1 mg/ml of ovomucoid (both Sigma). Tissue was transferred into a further 3-4 ml of this solution and gently triturated into a single cell suspension using a fire-polished Pasteur pipette. The single cell suspension was layered on to 5 ml HBSS containing 10 mg/ml of BSA and 10 mg/ml of ovomucoid and centrifuged at 100× g for 10 min. […]
Agonist evoked membrane currents were recorded from hippocampal neurons using the whole cell configuration of the patch-clamp technique. […] Agonist-evoked whole cell currents were measured at their peak. Responses in the presence of drugs expressed as the arithmetic mean ±SEM of responses in the absence (control) or drugs.

[3] = biological target: T1, human GABAA receptors containing α1β2γ2 subunits (Homo sapiens, UniProt P14867+P18507+P47870); experiment: Electrophysiology Assay 2, GABAA subunit transfected HEK cells (α1β2γ2); assay type: cell-based; details: expressed human α1β2γ2 receptors; versus diazepam; FIG. 2
T1 construct: expressed in transfected cells; host or cells: HEK cells
T1 sequence (P14867 28-456): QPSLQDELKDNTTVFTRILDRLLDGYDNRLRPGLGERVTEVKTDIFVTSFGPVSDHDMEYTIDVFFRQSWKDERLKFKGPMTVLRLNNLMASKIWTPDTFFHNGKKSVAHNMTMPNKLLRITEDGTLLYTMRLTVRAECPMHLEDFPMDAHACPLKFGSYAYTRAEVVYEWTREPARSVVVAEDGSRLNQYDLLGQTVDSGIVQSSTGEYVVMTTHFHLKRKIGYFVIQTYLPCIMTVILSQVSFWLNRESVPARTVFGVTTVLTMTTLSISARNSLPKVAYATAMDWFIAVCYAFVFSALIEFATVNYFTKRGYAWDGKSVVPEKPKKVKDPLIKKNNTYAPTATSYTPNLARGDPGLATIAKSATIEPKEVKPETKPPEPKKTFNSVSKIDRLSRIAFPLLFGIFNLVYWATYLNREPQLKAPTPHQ
T1 sequence (P47870 25-512 limits assumed): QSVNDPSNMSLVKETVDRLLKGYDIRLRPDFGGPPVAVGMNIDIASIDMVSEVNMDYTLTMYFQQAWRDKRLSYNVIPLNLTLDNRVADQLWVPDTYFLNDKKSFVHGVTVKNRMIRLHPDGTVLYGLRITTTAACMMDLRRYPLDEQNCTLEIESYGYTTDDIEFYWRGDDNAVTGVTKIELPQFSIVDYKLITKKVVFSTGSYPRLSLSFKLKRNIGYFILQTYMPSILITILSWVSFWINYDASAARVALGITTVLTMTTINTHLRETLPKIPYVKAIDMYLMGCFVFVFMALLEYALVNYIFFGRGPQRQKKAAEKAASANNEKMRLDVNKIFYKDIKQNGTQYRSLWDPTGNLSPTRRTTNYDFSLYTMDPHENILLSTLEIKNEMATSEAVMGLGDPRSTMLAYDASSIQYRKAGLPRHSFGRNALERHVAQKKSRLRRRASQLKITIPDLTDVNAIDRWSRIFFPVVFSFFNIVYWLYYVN
T1 sequence (P18507 40-475): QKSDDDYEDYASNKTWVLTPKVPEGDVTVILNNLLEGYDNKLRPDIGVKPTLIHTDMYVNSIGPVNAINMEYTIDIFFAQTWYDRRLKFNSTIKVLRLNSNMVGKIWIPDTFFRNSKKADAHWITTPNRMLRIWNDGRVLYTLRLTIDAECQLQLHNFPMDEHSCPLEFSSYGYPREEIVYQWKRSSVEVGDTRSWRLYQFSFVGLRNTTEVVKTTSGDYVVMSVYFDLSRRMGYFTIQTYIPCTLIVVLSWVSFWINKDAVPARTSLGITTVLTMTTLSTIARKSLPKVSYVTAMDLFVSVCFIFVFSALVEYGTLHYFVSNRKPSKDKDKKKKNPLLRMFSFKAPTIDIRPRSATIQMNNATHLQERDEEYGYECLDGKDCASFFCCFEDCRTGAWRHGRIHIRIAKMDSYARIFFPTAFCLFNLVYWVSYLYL
Protocol: GABAA subunit transfected HEK cells are maintained at 37° C. and 5% CO2 using Dulbecco's Modified Eagle's Medium with L-glutamine and no sodium pyruvate (Irvine Scientific #9031, Irvine Calif.) and supplemented with 10% fetal bovine serum (Irvine Scientific #3000), 10 U/ml hygromycin B (Calbiochem #400051), and an antibiotic cocktail consisting of 100 μg/ml streptomycin sulfate, 0.25 μg/ml amphotericin B, 100 units/ml penicillin G (Gibco 15240-096, Gaithersburg Md.). Cells are passed by 2× wash with phosphate buffered saline (PBS) pH 7.4 and lifted using 1× trypsin/EDTA solution in PBS (0.5 mg/ml trypsin, 0.2 mg/ml EDTA, Irvine Scientific #9342) when confluency reaches ˜90%.
GABAA subunit transfected HEK cells are grown to ˜70% confluency on slide. Cells are transferred to a bath that is continuously perfused with extracellular saline. The extracellular medium contained 145 mM NaCl, 3 mM KCl, 1.5 mM CaCl2, 1 mM MgCl2, 5.5 mM d-glucose, and 10 mM HEPES, pH 7.4 at an osmolarity of 320-330 mosM. Recordings are performed at room temperature using the whole cell patch clamp technique. The patch pipette solution contained 147 mM N-methyl-D-glucamine hydrochloride, 5 mM CsCl, 5 mM K2ATP, 5 mM HEPES, 1 mM MgCl2, 0.1 mM CaCl2, and 1.1 mM EGTA, pH 7.2, at an osmolarity of 315 mosM. Pipette-to-bath resistance is typically 3-5 Mohms. […]

## CCn1cc(C(=O)O)c(=O)c2cc(NC3CCCc4ccccc43)c(Cl)cc21 (stereo not shown) [compound 3, 7-chloro-1-ethyl-6-(1,2,3,4-tetrahydronaphthyl-1-amino)-4-oxo-1,4-dihydroquinoline-3-carboxylic acid]
[1]
  effect on [35S]TBPS binding in absence or presence of furosemide: does not act directly at the same site on the GRC as the loop-diuretic furosemide
BZ receptors
  effect on [3H]flunitrazepam binding to BZ receptors: allosterically coupled to and does not act directly on the BZ receptor
[2]
  potentiating effect on GABA induced chloride currents: positive efficacy modulator of GABA-gated chloride channels
[3]
  efficacy on GABA induced currents (IGABA): dose-dependent positive efficacy
